Data published in PubChem BioAssay (NCI).
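These data come from cells grown in 96-well plates and exposed to compound for 48 hours at five concentrations. The concentration for full growth arrest is given as TGI.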

Tests used:
Assay in all cases: DTP human tumour cell line panel, 48 h
[1] = tested on: 786-0 renal
[2] = tested on: A498 renal
[3] = tested on: A549 NSCLC
[4] = tested on: ACHN renal
[5] = tested on: CCRF-CEM leukemia
[6] = tested on: COLO 205 colon
[7] = tested on: DLD-1 colon
[8] = tested on: DMS 114 small cell lung
[9] = tested on: DMS 273 small cell lung
[10] = tested on: EKVX NSCLC
[11] = tested on: HCC-2998 colon
[12] = tested on: HCT-15 colon
[13] = tested on: HL-60(TB) leukemia
[14] = tested on: HOP-18 NSCLC
[15] = tested on: HT29 colon
[16] = tested on: IGROV1 ovarian
[17] = tested on: K-562 leukemia
[18] = tested on: KM12 colon
[19] = tested on: LOX IMVI melanoma
[20] = tested on: LXFL 529 NSCLC
[21] = tested on: M14 melanoma
[22] = tested on: M19-MEL melanoma
[23] = tested on: MALME-3M melanoma
[24] = tested on: MOLT-4 leukemia
[25] = tested on: NCI-H226 lung
[26] = tested on: NCI-H23 lung
[27] = tested on: NCI-H460 lung
[28] = tested on: OVCAR-3 ovarian
[29] = tested on: OVCAR-4 ovarian
[30] = tested on: OVCAR-5 ovarian
[31] = tested on: OVCAR-8 ovarian
[32] = tested on: RPMI-8226 leukemia
[33] = tested on: RXF 393 renal
[34] = tested on: RXF-631 renal
[35] = tested on: SF-268 CNS
[36] = tested on: SF-295 CNS
[37] = tested on: SF-539 CNS
[38] = tested on: SK-MEL-28 melanoma
[39] = tested on: SK-MEL-5 melanoma
[40] = tested on: SK-OV-3 ovarian
[41] = tested on: SN12C renal
[42] = tested on: SNB-19 CNS
[43] = tested on: SNB-75 CNS
[44] = tested on: SNB-78 CNS
[45] = tested on: SR leukemia
[46] = tested on: SW-620 colon
[47] = tested on: TK-10 renal
[48] = tested on: U251 CNS
[49] = tested on: UACC-62 melanoma
[50] = tested on: UO-31 renal
[51] = tested on: XF 498 CNS
[52] = tested on: CAKI-1 renal
[53] = tested on: HCT-116 colon
[54] = tested on: HOP-62 NSCLC
[55] = tested on: HOP-92 NSCLC
[56] = tested on: KM20L2 colon
[57] = tested on: NCI-H522 lung
[58] = tested on: SK-MEL-2 melanoma
[59] = tested on: UACC-257 melanoma

Compound: CC(C)CCC1CC2C(=O)N(c3ccccc3)C(=O)C2c2[nH]c3ccccc3c21 (stereo not drawn)
- TGI [1]: 15.9 µM
- TGI [2]: 16 µM
- TGI [3]: 17.7 µM
- TGI [4]: 21.5 µM
- TGI [5]: 16.8 µM
- TGI [6]: 7.08 µM
- TGI [7]: 15 µM
- TGI [8]: 2.81 µM
- TGI [9]: 2.72 µM
- TGI [10]: 11.6 µM
- TGI [11]: 11.2 µM
- TGI [12]: 13.4 µM
- TGI [13]: 5.73 µM
- TGI [14]: 21.6 µM
- TGI [15]: 11 µM
- TGI [16]: 28.4 µM
- TGI [17]: 10.7 µM
- TGI [18]: 14.8 µM
- TGI [19]: 14.6 µM
- TGI [20]: 20.2 µM
- TGI [21]: 4.04 µM
- TGI [22]: 20 µM
- TGI [23]: 15.1 µM
- TGI [24]: 17.3 µM
- TGI [25]: 12.4 µM
- TGI [26]: 12.9 µM
- TGI [27]: 12.2 µM
- TGI [28]: 7.63 µM
- TGI [29]: 20.7 µM
- TGI [30]: 31.4 µM
- TGI [31]: 11.7 µM
- TGI [32]: 11.8 µM
- TGI [33]: 8.01 µM
- TGI [34]: 13.8 µM
- TGI [35]: 13.5 µM
- TGI [36]: 2.86 µM
- TGI [37]: 10.8 µM
- TGI [38]: 20 µM
- TGI [39]: 13 µM
- TGI [40]: 32.2 µM
- TGI [41]: 15.4 µM
- TGI [42]: 20.6 µM
- TGI [43]: 9.25 µM
- TGI [44]: 25.6 µM
- TGI [45]: 23.9 µM
- TGI [46]: 13.1 µM
- TGI [47]: 16.1 µM
- TGI [48]: 3.5 µM
- TGI [49]: 20.9 µM
- TGI [50]: 18.9 µM
- TGI [51]: 6.08 µM

Compound: CCCCCCCCCCCCCC(=O)OCC(C[As](=O)(O)O)OC(=O)CCCCCCCCCCCCC (stereo not drawn)
- TGI [1]: > 100 µM
- TGI [2]: > 100 µM
- TGI [3]: > 100 µM
- TGI [4]: > 100 µM
- TGI [52]: > 100 µM
- TGI [5]: > 100 µM
- TGI [7]: > 100 µM
- TGI [8]: > 100 µM
- TGI [9]: > 100 µM
- TGI [10]: > 100 µM
- TGI [11]: > 100 µM
- TGI [53]: > 100 µM
- TGI [12]: > 100 µM
- TGI [14]: > 100 µM
- TGI [54]: > 100 µM
- TGI [55]: > 100 µM
- TGI [15]: > 100 µM
- TGI [16]: > 100 µM
- TGI [17]: > 100 µM
- TGI [18]: > 100 µM
- TGI [56]: > 100 µM
- TGI [20]: > 100 µM
- TGI [21]: > 100 µM
- TGI [23]: > 100 µM
- TGI [24]: > 100 µM
- TGI [25]: > 100 µM
- TGI [26]: > 100 µM
- TGI [27]: > 100 µM
- TGI [57]: > 100 µM
- TGI [28]: > 100 µM
- TGI [29]: > 100 µM
- TGI [31]: > 100 µM
- TGI [32]: > 100 µM
- TGI [33]: > 100 µM
- TGI [34]: > 100 µM
- TGI [35]: > 100 µM
- TGI [37]: > 100 µM
- TGI [58]: > 100 µM
- TGI [38]: > 100 µM
- TGI [39]: > 100 µM
- TGI [40]: > 100 µM
- TGI [41]: > 100 µM
- TGI [42]: > 100 µM
- TGI [43]: > 100 µM
- TGI [44]: > 100 µM
- TGI [45]: > 100 µM
- TGI [46]: 47 µM
- TGI [47]: > 100 µM
- TGI [48]: > 100 µM
- TGI [59]: > 100 µM
- TGI [49]: > 100 µM
- TGI [50]: > 100 µM
- TGI [51]: > 100 µM

Compound: NC(=S)N/N=C(\CC1OC(=O)c2ccccc21)c1ccc(Cl)cc1 (stereo not drawn)
- TGI [1]: > 100 µM
- TGI [3]: > 100 µM
- TGI [4]: > 100 µM
- TGI [52]: 99.2 µM
- TGI [6]: 98.8 µM
- TGI [7]: > 100 µM
- TGI [8]: 75 µM
- TGI [9]: > 100 µM
- TGI [11]: 48.6 µM
- TGI [53]: 54.9 µM
- TGI [12]: > 100 µM
- TGI [13]: > 100 µM
- TGI [54]: 46 µM
- TGI [55]: 91.7 µM
- TGI [15]: 65.9 µM
- TGI [16]: > 100 µM
- TGI [17]: > 100 µM
- TGI [18]: 52 µM
- TGI [56]: > 100 µM
- TGI [19]: 62.8 µM
- TGI [20]: > 100 µM
- TGI [21]: > 100 µM
- TGI [22]: 66.1 µM
- TGI [23]: > 100 µM
- TGI [24]: > 100 µM
- TGI [25]: 53.3 µM
- TGI [26]: 57.7 µM
- TGI [27]: > 100 µM
- TGI [57]: 63.8 µM
- TGI [28]: > 100 µM
- TGI [29]: 99 µM
- TGI [30]: > 100 µM
- TGI [31]: 35.6 µM
- TGI [32]: > 100 µM
- TGI [33]: 49 µM
- TGI [34]: 74.1 µM
- TGI [35]: > 100 µM
- TGI [36]: > 100 µM
- TGI [37]: 44.9 µM
- TGI [38]: > 100 µM
- TGI [40]: > 100 µM
- TGI [41]: > 100 µM
- TGI [42]: > 100 µM
- TGI [43]: > 100 µM
- TGI [44]: > 100 µM
- TGI [45]: > 100 µM
- TGI [46]: > 100 µM
- TGI [47]: > 100 µM
- TGI [48]: 73.6 µM
- TGI [59]: > 100 µM
- TGI [49]: 47.2 µM
- TGI [50]: 84.9 µM
- TGI [51]: > 100 µM

Compound: CCOC(=O)c1cnc2c(ccc3[nH]n(C)nc32)c1=O
- TGI [1]: > 100 µM
- TGI [2]: > 100 µM
- TGI [3]: > 100 µM
- TGI [4]: > 100 µM
- TGI [52]: > 100 µM
- TGI [5]: > 100 µM
- TGI [6]: > 100 µM
- TGI [7]: > 100 µM
- TGI [8]: > 100 µM
- TGI [9]: 73.4 µM
- TGI [10]: > 100 µM
- TGI [11]: > 100 µM
- TGI [53]: 61.4 µM
- TGI [12]: > 100 µM
- TGI [13]: > 100 µM
- TGI [14]: > 100 µM
- TGI [54]: > 100 µM
- TGI [55]: > 100 µM
- TGI [15]: > 100 µM
- TGI [16]: > 100 µM
- TGI [17]: > 100 µM
- TGI [18]: > 100 µM
- TGI [56]: > 100 µM
- TGI [20]: > 100 µM
- TGI [21]: > 100 µM
- TGI [22]: > 100 µM
- TGI [23]: > 100 µM
- TGI [24]: > 100 µM
- TGI [25]: > 100 µM
- TGI [26]: > 100 µM
- TGI [27]: > 100 µM
- TGI [57]: > 100 µM
- TGI [28]: > 100 µM
- TGI [30]: > 100 µM
- TGI [31]: > 100 µM
- TGI [32]: 67.5 µM
- TGI [33]: 95.5 µM
- TGI [34]: > 100 µM
- TGI [35]: > 100 µM
- TGI [36]: > 100 µM
- TGI [58]: 46.1 µM
- TGI [38]: > 100 µM
- TGI [39]: > 100 µM
- TGI [40]: > 100 µM
- TGI [41]: > 100 µM
- TGI [42]: > 100 µM
- TGI [43]: > 100 µM
- TGI [44]: 38.6 µM
- TGI [45]: > 100 µM
- TGI [46]: 36.8 µM
- TGI [47]: > 100 µM
- TGI [48]: 68.9 µM
- TGI [59]: > 100 µM
- TGI [49]: > 100 µM
- TGI [50]: > 100 µM
- TGI [51]: > 100 µM
